# Assay results published in the supplement of paper PMC10307832.
# Tests used:
# Test in all cases: relative viability (nuclei count vs DMSO), 5 days (fraction); higher = more cells survive
# Neratinib + Pemetrexed = compound: CCOc1cc2ncc(C#N)c(Nc3ccc(OCc4ccccn4)c(Cl)c3)c2cc1NC(=O)/C=C/CN(C)C [Neratinib] + Nc1nc2[nH]cc(CCc3ccc(C(=O)N[C@@H](CCC(=O)O)C(=O)O)cc3)c2c(=O)[nH]1 [Pemetrexed] (partner 0.2 µM)
# Outline: (§1)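 Lung cancer cell lines were seeded in 1536-well plates and dosed by pin tool the next day, with either a single drug or a fixed anchor-drug dose combined with five library-drug doses (not always all listed) spaced in √10 steps. Five days later, one step fixed the cells and stained their nuclei (final 0.05% Triton X-100, 1% formaldehyde, 1 ug/ml Hoechst), and nuclei were counted on 4× images. Relative viability is the nuclei count in treated wells divided by the count in vehicle wells, and each value is the median of duplicate plates.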
# Neratinib + OSI-027 = compound: CCOc1cc2ncc(C#N)c(Nc3ccc(OCc4ccccn4)c(Cl)c3)c2cc1NC(=O)/C=C/CN(C)C [Neratinib] + COc1cccc2cc(-c3nc([C@H]4CC[C@H](C(=O)O)CC4)n4ncnc(N)c34)[nH]c12 [OSI-027] (partner 0.5 µM)
# Outline: as §1
# Neratinib + Foretinib = compound: CCOc1cc2ncc(C#N)c(Nc3ccc(OCc4ccccn4)c(Cl)c3)c2cc1NC(=O)/C=C/CN(C)C [Neratinib] + COc1cc2c(Oc3ccc(NC(=O)C4(C(=O)Nc5ccc(F)cc5)CC4)cc3F)ccnc2cc1OCCCN1CCOCC1 [Foretinib] (partner 0.25 µM)
# Outline: as §1
# Neratinib + AZD7762 = compound: CCOc1cc2ncc(C#N)c(Nc3ccc(OCc4ccccn4)c(Cl)c3)c2cc1NC(=O)/C=C/CN(C)C [Neratinib] + NC(=O)Nc1cc(-c2cccc(F)c2)sc1C(=O)N[C@H]1CCCNC1 [AZD7762] (partner 0.2 µM)
# Outline: as §1
Cell Line,relative viability (Neratinib + Pemetrexed; first compound 0.01 µM),relative viability (Neratinib + Pemetrexed; first compound 0.03162 µM),relative viability (Neratinib + Pemetrexed; first compound 0.1 µM),relative viability (Neratinib + Pemetrexed; first compound 0.3162 µM),relative viability (Neratinib + Pemetrexed; first compound 1 µM),relative viability (Neratinib + OSI-027; first compound 0.01 µM),relative viability (Neratinib + OSI-027; first compound 0.03162 µM),relative viability (Neratinib + OSI-027; first compound 0.1 µM),relative viability (Neratinib + OSI-027; first compound 0.3162 µM),relative viability (Neratinib + OSI-027; first compound 1 µM),relative viability (Neratinib + Foretinib; first compound 0.01 µM),relative viability (Neratinib + Foretinib; first compound 0.03162 µM),relative viability (Neratinib + Foretinib; first compound 0.1 µM),relative viability (Neratinib + Foretinib; first compound 0.3162 µM),relative viability (Neratinib + Foretinib; first compound 1 µM),relative viability (Neratinib + AZD7762; first compound 0.01 µM),relative viability (Neratinib + AZD7762; first compound 0.03162 µM),relative viability (Neratinib + AZD7762; first compound 0.1 µM),relative viability (Neratinib + AZD7762; first compound 0.3162 µM),relative viability (Neratinib + AZD7762; first compound 1 µM)
COR-L 105,1.11,1.13,0.857,0.484,0.37,0.863,0.54,0.36,0.226,0.283,0.995,1.28,0.54,0.324,0.284,,,,,
LK-2,0.318,0.464,0.265,0.221,0.151,0.189,0.227,0.217,0.189,0.182,1.27,1.6,1.24,0.958,0.656,0.358,0.309,0.368,0.145,0.175
PC-3 [JPC-3],1.44,1.32,1.07,0.564,0.43,0.814,0.749,0.662,0.544,0.319,1.07,1.14,0.927,0.815,0.318,0.798,0.863,0.856,0.487,0.51
UMC-11,0.786,0.785,0.525,0.683,0.51,0.487,0.487,0.415,0.414,0.308,0.989,1.13,1.02,0.954,,,,,,
NCI-H2085,0.962,0.987,0.754,0.655,0.71,0.736,0.882,0.647,0.398,0.266,0.801,1.08,0.761,0.64,0.31,0.924,1.04,0.933,0.746,
NCI-H441,0.256,0.266,0.261,0.278,0.248,0.681,0.566,0.598,0.357,0.275,1.01,1.04,1.07,0.856,0.492,1.12,1.32,0.958,0.987,0.73
NCI-H1666,0.856,0.867,0.746,0.652,0.725,0.901,0.905,0.751,0.552,0.683,0.973,0.912,0.754,0.646,0.721,0.929,0.946,0.783,0.653,0.611
SW 900,0.514,0.473,0.426,0.454,0.371,0.597,0.604,0.621,0.574,0.385,0.937,0.917,,0.865,0.709,0.696,0.753,0.526,0.54,0.409
NCI-H2126,0.659,0.638,0.623,0.616,0.404,0.697,0.688,0.69,0.649,0.447,1.37,1.36,1.13,1.09,0.536,1.07,0.999,0.873,1,0.741
LU99A,0.185,0.194,0.155,0.21,0.188,0.287,0.311,0.292,0.288,0.26,0.959,,0.73,0.462,0.376,0.426,0.403,0.314,0.374,0.263
HCC-366,0.202,0.147,0.158,0.14,0.171,1.1,0.949,0.785,0.803,0.163,0.971,0.961,0.844,0.856,1.03,,0.307,0.147,0.232,0.169
EKVX,0.413,0.421,0.288,0.232,0.167,0.712,0.693,0.656,0.365,0.195,0.697,0.952,0.578,0.567,0.193,0.726,0.699,0.609,0.441,0.199
NCI-H1755,0.496,0.496,0.379,0.563,0.417,0.795,0.785,0.721,0.695,0.528,0.876,0.988,,0.972,0.745,0.492,0.53,0.356,0.65,0.407
NCI-H727,,,,,,0.58,0.68,0.466,0.638,0.406,0.978,0.709,0.793,0.842,0.558,0.574,0.568,,0.497,0.374
LC-2-ad,0.25,0.258,0.274,0.282,0.24,0.831,0.877,0.749,0.518,0.383,0.898,0.989,0.777,0.532,0.393,0.832,0.894,,0.551,0.327
NCI-H1793,0.92,0.778,0.637,0.666,0.414,0.309,0.26,0.237,0.167,0.145,0.723,,0.408,0.338,0.32,0.629,0.503,0.346,0.239,0.13
HCC-827,0.273,0.271,0.191,0.153,0.13,0.81,0.774,0.721,0.508,0.16,1.17,1.11,0.934,0.186,0.173,0.217,0.236,0.132,0.129,0.132
HCC-78,0.889,0.925,0.883,0.898,0.885,0.387,0.333,0.354,0.27,0.296,0.561,0.555,0.499,0.344,0.365,0.797,0.602,0.541,0.424,0.415
NCI-H2087,0.634,0.74,0.655,0.694,0.548,,0.634,0.471,0.335,0.267,1.36,1.24,1.05,0.742,0.536,1.36,1.29,0.985,1.24,0.694
SK-LU-1,1.01,0.999,0.932,0.917,0.49,0.373,0.384,0.305,0.238,0.135,0.917,0.938,0.816,0.46,0.302,,,,,

Cell Line,relative viability (Neratinib + Pemetrexed; first compound 0.01 µM),relative viability (Neratinib + Pemetrexed; first compound 0.03162 µM),relative viability (Neratinib + Pemetrexed; first compound 0.1 µM),relative viability (Neratinib + Pemetrexed; first compound 0.3162 µM),relative viability (Neratinib + Pemetrexed; first compound 1 µM),relative viability (Neratinib + OSI-027; first compound 0.01 µM),relative viability (Neratinib + OSI-027; first compound 0.03162 µM),relative viability (Neratinib + OSI-027; first compound 0.1 µM),relative viability (Neratinib + OSI-027; first compound 0.3162 µM),relative viability (Neratinib + OSI-027; first compound 1 µM),relative viability (Neratinib + Foretinib; first compound 0.01 µM),relative viability (Neratinib + Foretinib; first compound 0.03162 µM),relative viability (Neratinib + Foretinib; first compound 0.1 µM),relative viability (Neratinib + Foretinib; first compound 0.3162 µM),relative viability (Neratinib + Foretinib; first compound 1 µM),relative viability (Neratinib + AZD7762; first compound 0.01 µM),relative viability (Neratinib + AZD7762; first compound 0.03162 µM),relative viability (Neratinib + AZD7762; first compound 0.1 µM),relative viability (Neratinib + AZD7762; first compound 0.3162 µM),relative viability (Neratinib + AZD7762; first compound 1 µM)
NCI-H2342,0.722,0.774,0.714,0.564,0.497,0.73,0.63,0.528,0.464,0.462,1.08,0.993,0.891,0.703,0.525,0.519,0.499,0.408,0.267,0.379
A-427,1.13,1.05,0.975,0.897,0.866,0.487,0.499,0.467,0.332,0.218,1.05,,0.972,0.935,0.255,0.811,0.725,0.704,0.729,0.338
HCC-44,0.63,0.686,0.635,0.648,0.671,0.723,0.655,0.648,0.505,0.548,,,,,,0.961,0.995,0.947,1.05,1.12
ABC-1,,,,,,0.436,0.441,0.47,0.42,0.214,1.16,1.12,0.689,0.954,0.466,0.955,0.659,0.682,0.779,
COR-L23,0.206,0.199,0.211,0.187,0.191,0.863,0.862,0.753,0.68,0.285,1.09,1.03,0.946,0.966,0.837,,,,,
NCI-H2009,1.09,,1.06,1.06,1.01,0.677,0.762,0.59,0.467,0.304,1.2,1.29,1.17,1.25,1.05,,,,,
NCI-H1650,0.381,0.348,0.31,0.314,0.325,0.557,0.598,0.435,,0.37,1.1,1.29,0.744,0.657,0.602,,,,,
EBC-1,,,,,,,,,,,0.102,0.0886,0.111,0.113,0.0982,,,,,
NCI-H661,0.951,0.947,0.595,0.704,0.537,0.688,0.615,0.54,0.325,0.24,1.05,1.06,0.836,0.489,0.364,,,,,
SK-MES-1,1.01,0.925,0.89,0.529,0.308,0.566,0.687,0.538,0.305,0.185,0.97,0.985,0.735,0.832,0.375,,,,,
NCI-H1792,0.826,1.16,0.716,0.812,0.538,0.825,0.87,0.698,0.692,0.424,,,,,,,0.943,0.625,0.533,0.283
A549,,,,,,,,,,,0.969,0.927,,0.832,0.54,,,,,
NCI-H1648,0.836,0.799,0.663,0.685,0.55,0.297,0.265,0.303,0.305,0.278,,,,,,0.676,,0.491,0.552,0.444
NCI-H1703,,,,,,,,,,,0.447,0.318,0.356,0.327,0.218,0.148,0.135,0.164,0.111,0.118
SW 1573,,0.878,0.651,0.799,0.475,0.685,0.595,0.542,0.544,0.276,1.15,0.894,0.941,0.97,0.722,,,,,
NCI-H1563,0.812,0.924,0.739,0.747,0.582,0.806,0.725,0.732,0.67,0.575,0.858,0.942,0.885,0.844,0.75,,,,,
NCI-H2228,0.382,0.362,0.306,0.271,0.147,0.536,,0.662,0.526,0.142,,0.95,0.715,0.646,0.204,,,,,
NCI-H520,0.631,0.735,,0.505,,0.288,0.253,0.261,0.234,0.178,0.96,,0.61,,0.394,,,,,
NCI-H2023,0.251,0.221,0.21,0.221,0.212,0.432,0.493,0.31,0.331,0.179,0.797,0.803,0.415,0.454,0.257,,,,,
